Laboratory results published in patent US20240368135A1 (VERTEX PHARMACEUTICALS INCORPORATED, priority 2021, published 2024).

molecular target: human NaV 1.8 (Homo sapiens, UniProt Q9Y5Y9); test: E-VIPR assay detecting and measuring NaV inhibition properties; format: cell-based; conditions: HEK cells expressing truncated human NaV 1.8; in the presence of human serum (compound numbers followed by *); read-out: IC50 in the E-VIPR Assay, performed in the presence of human serum
Outline: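 HEK cells expressing truncated, fully active human NaV1.8, with KIR2.1 BacMam co-transduction, were loaded with CC2-DMPE/DiSBAC6(3) voltage-sensing dyes for 20 min at room temperature. Compounds were tested in 11-point 3-fold dilutions (300 nM top final), optionally with 25% human serum, under electrical stimulation with FRET read-out.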

Chain of human NaV 1.8 (Q9Y5Y9 126-399 limits assumed): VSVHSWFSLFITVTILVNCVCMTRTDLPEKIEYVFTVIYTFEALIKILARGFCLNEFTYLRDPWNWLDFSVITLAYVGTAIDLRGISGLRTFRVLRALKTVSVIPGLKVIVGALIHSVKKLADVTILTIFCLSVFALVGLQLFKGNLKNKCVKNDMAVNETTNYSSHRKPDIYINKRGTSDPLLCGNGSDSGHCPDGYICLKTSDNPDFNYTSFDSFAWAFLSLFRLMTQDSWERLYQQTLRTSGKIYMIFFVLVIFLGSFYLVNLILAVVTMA
Chain of human NaV 1.8 (Q9Y5Y9 660-890 limits assumed): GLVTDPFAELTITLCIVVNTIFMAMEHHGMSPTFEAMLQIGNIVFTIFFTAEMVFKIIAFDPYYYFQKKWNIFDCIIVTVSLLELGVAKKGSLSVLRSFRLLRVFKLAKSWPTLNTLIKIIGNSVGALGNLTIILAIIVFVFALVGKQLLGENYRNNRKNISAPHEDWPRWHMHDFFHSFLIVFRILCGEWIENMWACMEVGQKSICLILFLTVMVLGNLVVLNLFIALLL
Chain of human NaV 1.8 (Q9Y5Y9 1148-1722 limits assumed): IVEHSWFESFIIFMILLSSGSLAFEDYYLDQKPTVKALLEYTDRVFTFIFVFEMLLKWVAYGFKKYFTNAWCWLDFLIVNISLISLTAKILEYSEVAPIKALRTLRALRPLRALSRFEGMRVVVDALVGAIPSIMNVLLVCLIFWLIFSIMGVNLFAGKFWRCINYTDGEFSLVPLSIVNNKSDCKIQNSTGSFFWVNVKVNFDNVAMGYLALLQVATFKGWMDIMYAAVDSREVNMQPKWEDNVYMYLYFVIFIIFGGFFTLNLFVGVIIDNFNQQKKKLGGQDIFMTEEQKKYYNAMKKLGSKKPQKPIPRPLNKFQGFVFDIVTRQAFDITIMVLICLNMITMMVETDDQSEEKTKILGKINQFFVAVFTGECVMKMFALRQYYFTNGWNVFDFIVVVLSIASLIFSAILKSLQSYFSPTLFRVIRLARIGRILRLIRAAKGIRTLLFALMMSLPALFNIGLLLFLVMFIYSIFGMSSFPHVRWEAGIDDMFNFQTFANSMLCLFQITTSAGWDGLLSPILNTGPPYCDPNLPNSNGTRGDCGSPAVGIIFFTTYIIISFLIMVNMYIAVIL

Structure (SMILES) | IC50 [µM]
COc1c(C2C(C(=O)Nc3cc(CO)ncc3C)OC(C)(C(F)(F)F)C2C)ccc(F)c1F (stereo not shown) [Compound 243, 3-(3,4-difluoro-2-methoxy-phenyl)-N-[2-(hydroxymethyl)-5-methyl-4-pyridyl]-4,5-dimethyl-5-(trifluoromethyl)tetrahydrofuran-2-carboxamide] | 0.01 to 0.1

same assay, conditions: HEK cells expressing truncated human NaV 1.8; no human serum; read-out: IC50 in the E-VIPR Assay

Structure (SMILES) | IC50 [µM]
COc1nc(C(F)F)ccc1[C@@H]1[C@@H](C(=O)Nc2ccc(C(N)=O)nc2)O[C@](C)(C(F)(F)F)[C@@H]1C (stereo in doubt) [Compound 735, rel-5-((2S,3R,4R,5S)-3-(6-(difluoromethyl)-2-methoxypyridin-3-yl)-4,5-dimethyl-5-(trifluoromethyl)tetrahydrofuran-2-carboxamido)picolinamide] | ≥ 1
CNCc1c([C@H]2[C@H](C(=O)Nc3cn(C(F)F)nc3C)O[C@@](C)(C(F)(F)F)[C@H]2C)ccc(F)c1F [Compound 671, (2R,3S,4S,5R)-3-(3,4-difluoro-2-((methylamino)methyl)phenyl)-N-(1-(difluoromethyl)-3-methyl-1H-pyrazol-4-yl)-4,5-dimethyl-5-(trifluoromethyl)tetrahydrofuran-2-carboxamide] | 0.1 to 1
Cc1nn(C(F)F)cc1NC(=O)[C@@H]1O[C@@](C)(C(F)(F)F)[C@@H](C)[C@H]1c1ccc(F)c(F)c1CN1CCN(C)CC1 [Compound 674, (2R,3S,4S,5R)-3-(3,4-difluoro-2-((4-methylpiperazin-1-yl)methyl)phenyl)-N-(1-(difluoromethyl)-3-methyl-1H-pyrazol-4-yl)-4,5-dimethyl-5-(trifluoromethyl)tetrahydrofuran-2-carboxamide] | 0.1 to 1
C[C@@H]1[C@H](c2ccc(F)c(F)c2OC(F)F)[C@@H](C(=O)Nc2ccnc(CC(C)(C)O)c2)O[C@]1(C)C(F)(F)F (single isomer, unassigned) [Compound 463] | ≥ 1
C[C@H]1[C@@H](c2ccc(F)c(F)c2OCCN2CCOCC2)[C@H](C(=O)Nc2ccn(C)c(=O)c2)O[C@@]1(C)C(F)(F)F [Compound 588, (2R,3S,4S,5R)-3-(3,4-difluoro-2-(2-morpholinoethoxy)phenyl)-4,5-dimethyl-N-(1-methyl-2-oxo-1,2-dihydropyridin-4-yl)-5-(trifluoromethyl)tetrahydrofuran-2-carboxamide] | 0.01 to 0.1
COc1c([C@H]2[C@H](C(=O)Nc3cnc(C(F)CO)nc3)O[C@@](C)(C(F)(F)F)[C@H]2C)ccc(F)c1F (stereo partly drawn) [Compound 446, (2R,3S,4S,5R)-3-(3,4-difluoro-2-methoxy-phenyl)-N-[2-(1-fluoro-2-hydroxy-ethyl)pyrimidin-5-yl]-4,5-dimethyl-5-(trifluoromethyl)tetrahydrofuran-2-carboxamide] | 0.01 to 0.1

Second part, the molecule after the results:

IC50 [µM] | Structure (SMILES)
< 0.01 | COc1c([C@H]2[C@H](C(=O)Nc3ccc(C(N)=O)nc3)O[C@@](C)(C(F)(F)F)[C@H]2C)cccc1C(F)(F)F (stereo in doubt) [Compound 156, rel-5-((2R,3S,4S,5R)-3-(2-methoxy-3-(trifluoromethyl)phenyl)-4,5-dimethyl-5-(trifluoromethyl)tetrahydrofuran-2-carboxamido)picolinamide]
< 0.01 | C[C@H]1[C@@H](c2ccc(F)c(F)c2OCCO)[C@H](C(=O)Nc2cccnc2)O[C@@]1(C)C(F)(F)F [Compound 575, (2R,3S,4S,5R)-3-[3,4-difluoro-2-(2-hydroxyethoxy)phenyl]-4,5-dimethyl-N-(3-pyridyl)-5-(trifluoromethyl)tetrahydrofuran-2-carboxamide]
< 0.01 | C[C@H]1[C@@H](c2ccc(F)c(F)c2OCCOC(F)F)[C@H](C(=O)Nc2ccnc(CO)c2)O[C@@]1(C)C(F)(F)F [Compound 641, (2R,3S,4S,5R)-3-(2-(2-(difluoromethoxy)ethoxy)-3,4-difluorophenyl)-N-(2-(hydroxymethyl)pyridin-4-yl)-4,5-dimethyl-5-(trifluoromethyl)tetrahydrofuran-2-carboxamide]
